Laboratory results from ChEMBL document CHEMBL2074338, “Characterization of organic anion transport inhibitors using cells stably expressing human organic anion transporters” (Eur J Pharmacol, 2001).

The compounds below were run against T1, Organic anion transporter 3 (Homo sapiens, UniProt Q8TCC7) (assay: TP_TRANSPORTER: inhibition of E1S uptake in OAT3-expressing S2 cells).
T1 sequence (Q8TCC7 whole entry): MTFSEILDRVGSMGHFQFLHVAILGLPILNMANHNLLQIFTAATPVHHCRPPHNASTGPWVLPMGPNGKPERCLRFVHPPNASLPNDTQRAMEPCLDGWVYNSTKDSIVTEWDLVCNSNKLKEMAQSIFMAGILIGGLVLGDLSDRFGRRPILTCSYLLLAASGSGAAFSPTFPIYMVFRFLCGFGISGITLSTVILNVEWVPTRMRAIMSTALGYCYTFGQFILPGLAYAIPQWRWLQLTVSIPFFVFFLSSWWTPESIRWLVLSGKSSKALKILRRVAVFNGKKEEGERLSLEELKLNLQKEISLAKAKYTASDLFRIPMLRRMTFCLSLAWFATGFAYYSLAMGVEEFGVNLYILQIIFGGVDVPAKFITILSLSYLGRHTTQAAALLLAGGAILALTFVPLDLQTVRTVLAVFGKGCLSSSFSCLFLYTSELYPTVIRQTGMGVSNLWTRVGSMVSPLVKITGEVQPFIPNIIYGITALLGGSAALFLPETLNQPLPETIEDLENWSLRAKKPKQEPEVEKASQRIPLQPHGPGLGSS
Type: functional, cell-based
With `O=C(O)CCNC(=O)c1ccccc1` [BETAMIPRON] the Ki was 48.3 µM. For `CC1(C)C[C@@H]1C(=O)N/C(=C\CCCCSC[C@H](N)C(=O)O)C(=O)O` [CILASTATIN], the Ki was 231 µM. `CCCn1c(=O)c2[nH]c(C34CC5CC(CC3C5)C4)nc2n(CCC)c1=O` [ROLOFYLLINE] was tested, and the Ki was 3.7 µM.
